In patent publication EP1661584A1, “Use of conjugates of amatoxins and phallotoxins with macromolecules for cancer and inflammation therapy” (Faulstich, Heinz, Dr., priority 2004, dated 2006):

Tests used:
[1] = tested on: actin; test: actin binding
Source text: In all cases the macromolecular conjugates were distinctly more toxic to tumor cells (>1000) than the native toxins. Of high importance for this cytotoxic activity is the presence of a disulfide group in the linker moiety between toxin and macromolecule. After uptake into the tumor cells the disulfide group is cleaved by reduction releasing thiopropionyl-aminophalloidin or thiopropionyl-aminophallacidin into cytoplasm.

[2] = target: DNA-dependent RNA polymerase II (Homo sapiens, UniProt P24928+P30876); conditions: complex between amanitin and RNA polymerase II; cited from earlier work

Row | Substance | actin binding compared with phalloidin [1] | Kd [2]
1 | thiopropionyl-aminophalloidin | as tightly as phalloidin itself | 
2 | amanitin |  | 3 nM
